# Results published in patent publication US9067949B2, “Benzofuro[3,2-c] pyridines and related analogs as serotonin sub-type 6 (5-HT6) modulators for the treatment of obesity, metabolic syndrome, cognition and schizophrenia” (Albany Molecular Research, Inc., priority 2011, dated 2015).
# Like-named read-outs stand apart in the source and are kept apart here.
# What was measured:
# [1] = molecular target: human 5-HT6 receptor (Homo sapiens (Human), UniProt P50406); assay: 5-HT6 radioligand binding assay (SPA format, [N-methyl-3H]-LSD)
# human 5-HT6 receptor, sequence (P50406 whole entry): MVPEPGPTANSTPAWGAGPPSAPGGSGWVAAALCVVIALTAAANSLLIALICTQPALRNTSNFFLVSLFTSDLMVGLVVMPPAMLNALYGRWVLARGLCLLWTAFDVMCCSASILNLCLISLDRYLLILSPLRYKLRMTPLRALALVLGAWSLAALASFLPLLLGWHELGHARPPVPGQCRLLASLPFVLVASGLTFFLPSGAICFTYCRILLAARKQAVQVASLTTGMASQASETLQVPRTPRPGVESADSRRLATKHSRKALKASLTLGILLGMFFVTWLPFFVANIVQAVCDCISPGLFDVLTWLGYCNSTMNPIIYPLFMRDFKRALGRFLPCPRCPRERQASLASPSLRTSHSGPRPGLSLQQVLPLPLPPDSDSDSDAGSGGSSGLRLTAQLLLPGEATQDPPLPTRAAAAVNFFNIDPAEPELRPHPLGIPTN
# In short: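 Human 5-HT6 receptor membranes were incubated overnight at room temperature with 10 nM [N-methyl-3H]-LSD and competitor in 50 mM Tris-HCl pH 7.5, 5 mM MgCl2, 1 mM EDTA, 4% DMSO, read by SPA. Nonspecific binding was defined with 100 μM 5-HT. IC50 came from ten-point duplicate curves; Ki via Cheng-Prusoff.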
# [2] = human 5-HT6 receptor membranes, 10 nM [N-methyl-3H]-LSD, Ki by Cheng-Prusoff, read-out: human 5HT6 Ki
smiles,measurement,setting,value
"COc1cc(S(=O)(=O)c2ccccc2)cc2c3c(oc12)CCNC3.Cl [Example 54, 6-Methoxy-8-(phenylsulfonyl)-1,2,3,4-tetrahydrobenzofuro[3,2-c]pyridine hydrochloride]",Ki,[1]; [2],0.12 nM
same,melting point,,197 to 202 °C
"Cl.O=S(=O)(c1ccc2oc3c(c2c1)CNCC3)n1ccc2ccccc21 [Example 41, 8-(1H-Indol-1-ylsulfonyl)-1,2,3,4-tetrahydrobenzofuro[3,2-c]pyridine hydrochloride]",Ki,[1]; [2],0.58 nM
same,melting point,,283 to 286 °C
"Cl.O=S(=O)(c1ccc2ccccc2c1)c1ccc2oc3c(c2c1)CNCC3 [Example 40, 8-(2-Naphthylsulfonyl)-1,2,3,4-tetrahydrobenzofuro[3,2-c]pyridine hydrochloride]",Ki,[1]; [2],21 nM
same,melting point,,267 to 270 °C
"Cl.Nc1ccc(S(=O)(=O)c2ccc3oc4c(c3c2)CNCC4)cc1 [Example 36, 8-(4-Aminophenylsulfonyl)-1,2,3,4-tetrahydrobenzofuro[3,2-c]pyridine hydrochloride]",Ki,[1]; [2],40 nM
same,melting point,,305 to 314 °C (dec.)
"Cl.O=S(=O)(c1ccccc1)c1cc(Cn2cccn2)c2oc3c(c2c1)CNCC3 [Example 75, 6-((1H-pyrazol-1-yl)methyl)-8-(phenylsulfonyl)-1,2,3,4-tetrahydrobenzofuro[3,2-c]pyridine hydrochloride]",Ki,[1]; [2],124 nM
same,melting point,,145 to 148 °C
"Cl.O=S(=O)(c1ccc(F)cc1)c1ccc2oc3c(c2c1)CNCC3 [Example 31, 8-(4-Fluorophenylsulfonyl)-1,2,3,4-tetrahydrobenzofuro[3,2-c]pyridine hydrochloride]",Ki,[1]; [2],43 nM
same,melting point,,270 to 280 °C
"Cl.N#Cc1ccc(S(=O)(=O)c2ccc3oc4c(c3c2)CNCC4)cc1 [Example 34, 8-(4-Cyanophenylsulfonyl)-1,2,3,4-tetrahydrobenzofuro[3,2-c]pyridine hydrochloride]",Ki,[1],1320 nM
same,melting point,,295 to 301 °C (dec.)
"Cl.O=S(=O)(c1ccccc1)c1ccc2oc3c(c2c1)CNCCC3 [Example 69, 9-(Phenylsulfonyl)-2,3,4,5-tetrahydro-1H-benzofuro[3,2-c]azepine hydrochloride]",Ki,[1]; [2],571 nM
same,melting point,,211 to 216 °C
"Cl.OC(c1ccccc1)c1cc(Cl)c2oc3c(c2c1)CNCC3 (centres unmarked) [Example 94, (6-chloro-1,2,3,4-tetrahydrobenzofuro[3,2-c]pyridin-8-yl)(phenyl)methanol hydrochloride]",Ki,[1]; [2],143 nM
same,melting point,,260 °C (dec.)
"CC1(C)NCCc2oc3c(Cl)cc(S(=O)(=O)c4ccccc4)cc3c21.Cl [Example 84, 6-chloro-1,1-dimethyl-8-(phenylsulfonyl)-1,2,3,4-tetrahydrobenzofuro[3,2-c]pyridine hydrochloride]",Ki,[1]; [2],27 nM
same,melting point,,282 to 287 °C (dec.)
"CC1CNCc2c1oc1c(Cl)cc(S(=O)(=O)c3ccccc3)cc21.Cl (centres unmarked) [Example 89, 6-chloro-4-methyl-8-(phenylsulfonyl)-1,2,3,4-tetrahydrobenzofuro[3,2-c]pyridine hydrochloride]",Ki,[1]; [2],110 nM
same,melting point,,291 to 292 °C (dec.)
"COc1cc(Cc2ccccc2)cc2c3c(oc12)CCNC3.Cl [Example 96, 8-benzyl-6-methoxy-1,2,3,4-tetrahydrobenzofuro[3,2-c]pyridine hydrochloride]",Ki,[1]; [2],4.9 nM
same,melting point,,263 to 265 °C
"Cl.O=S(=O)(c1ccccc1)c1ccc2c3c(oc2c1)CCCNC3 [Example 68, 8-(Phenylsulfonyl)-2,3,4,5-tetrahydro-1H-benzofuro[3,2-c]azepine hydrochloride]",Ki,[1]; [2],132 nM
same,melting point,,221 to 225 °C
"Cl.O=S(=O)(c1cccc(Cl)c1)c1ccc2c3c(oc2c1)CCNC3 [Example 62, 7-(3-Chlorophenylsulfonyl)-1,2,3,4-tetrahydrobenzofuro[3,2-c]pyridine hydrochloride]",Ki,[1]; [2],1.7 nM
same,melting point,,288 to 292 °C
"CC(c1ccccc1)c1cc(Cl)c2oc3c(c2c1)CNCC3.Cl (centres unmarked) [Example 95, 6-chloro-8-(1-phenylethyl)-1,2,3,4-tetrahydrobenzofuro[3,2-c]pyridine hydrochloride]",Ki,[1]; [2],7.5 nM
same,melting point,,245 to 255 °C (dec.)
"Cl.N#Cc1cccc(S(=O)(=O)c2cc(Cl)c3oc4c(c3c2)CNCC4)c1 [Example 48, 6-Chloro-8-(3-cyanophenylsulfonyl)-1,2,3,4-tetrahydrobenzofuro[3,2-c]pyridine hydrochloride]",Ki,[1]; [2],12 nM
same,melting point,,272 to 274 °C
"Cl.O=S(=O)(c1ccccc1)c1ccc2oc3c(c2c1)CNCC3 [Example 28, 8-(Phenylsulfonyl)-1,2,3,4-tetrahydrobenzofuro[3,2-c]pyridine hydrochloride]",Ki,[1]; [2],19 nM
same,melting point,,243 °C
"Cl.O=S(=O)(c1ccccc1)c1ccc2c3c(oc2c1)CCNC3 [Example 60, 7-(Phenylsulfonyl)-1,2,3,4-tetrahydrobenzofuro[3,2-c]pyridine hydrochloride]",Ki,[1]; [2],9.8 nM
same,melting point,,235 to 238 °C
"COc1ccc(S(=O)(=O)c2ccc3oc4c(c3c2)CNCC4)cc1.Cl [Example 33, 8-(4-Methoxyphenylsulfonyl)-1,2,3,4-tetrahydrobenzofuro[3,2-c]pyridine hydrochloride]",Ki,[1]; [2],100 nM
same,melting point,,270 to 272 °C
"Cl.O=S(=O)(c1cc(F)cc(F)c1)c1ccc2oc3c(c2c1)CNCC3 [Example 37, 8-(3,5-Difluorophenylsulfonyl)-1,2,3,4-tetrahydrobenzofuro[3,2-c]pyridine hydrochloride]",Ki,[1]; [2],339 nM
same,melting point,,275 to 281 °C (dec.)
"Cl.O=S(=O)(c1ccccc1)c1cc(F)c2oc3c(c2c1)CNCC3 [Example 52, 6-Fluoro-8-(phenylsulfonyl)-1,2,3,4-tetrahydrobenzofuro[3,2-c]pyridine hydrochloride]",Ki,[1]; [2],5.1 nM
same,melting point,,232 to 250 °C
"CC1Cc2oc3c(Cl)cc(S(=O)(=O)c4ccccc4)cc3c2CN1.Cl (single isomer, unassigned; (-)) [Example 83a, (−) 6-chloro-3-methyl-8-(phenylsulfonyl)-1,2,3,4-tetrahydrobenzofuro[3,2-c]pyridine hydrochloride]",Ki,"[1]; human 5-HT6 receptor membranes, 10 nM [N-methyl-3H]-LSD, Ki by Cheng-Prusoff, hydrochloride, read-out: human 5HT6 Ki",25 nM
same,melting point,,293 °C (dec.)
"Cl.O=S(=O)(c1ccc2c3c(oc2c1)CC1CCC3N1)n1ccc2ccccc21 (centres unmarked) [Example 67, 3-(1H-indol-1-yl)sulfonyl-6,7,8,9,10-pentahydro-7,10-epiminocyclohepta[b]benzofuran hydrochloride]",Ki,[1]; [2],34 nM
same,melting point,,192 to 196 °C
"Cl.O=S(=O)(c1ccc2oc3c(c2c1)C1CCC(C3)N1)n1ccc2ccc(F)cc21 (centres unmarked) [Example 59, 2-(6-Fluoro-1H-indol-1-yl)sulfonyl-6,7,8,9,10-pentahydro-7,10-epiminocyclohepta[b]benzofuran hydrochloride]",Ki,[1]; [2],17 nM
same,melting point,,184 to 187 °C
"Cl.O=S(=O)(c1cccc(F)c1)c1cc(Cl)c2oc3c(c2c1)CNCC3 [Example 47, 6-Chloro-8-(3-fluorophenylsulfonyl)-1,2,3,4-tetrahydrobenzofuro[3,2-c]pyridine hydrochloride]",Ki,[1]; [2],0.39 nM
same,melting point,,276 to 278 °C
"O=S(=O)(c1ccccc1)c1cc(Cl)c2oc3c(c2c1)CC(O)CC3 (single isomer, unassigned; (-)) [Example 98, (−)-6-chloro-8-(phenylsulfonyl)-1,2,3,4-tetrahydrodibenzo[b,d]furan-2-ol]",Ki,[1]; [2],46 nM
same,melting point,,236 to 240 °C
"CN1CCc2oc3ccc(S(=O)(=O)c4ccccc4)cc3c2C1.Cl [Example 27, 2-Methyl-8-(phenylsulfonyl)-1,2,3,4-tetrahydrobenzofuro[3,2c]pyridine hydrochloride]",Ki,[1]; [2],6.5 nM
same,melting point,,272 °C
"Cl.O=S(=O)(c1cccc(F)c1)c1ccc2oc3c(c2c1)CNCC3 [Example 29, 8-(3-Fluorophenylsulfonyl)-1,2,3,4-tetrahydrobenzofuro[3,2-c]pyridine hydrochloride]",Ki,[1]; [2],16 nM
same,melting point,,262 to 272 °C (dec.)
"Cc1cn(S(=O)(=O)c2ccc3oc4c(c3c2)C2CCC(C4)N2)c2ccccc12.Cl (centres unmarked) [Example 58, 2-(3-Methyl-1H-indol-1-yl)sulfonyl-6,7,8,9,10-pentahydro-7,10-epiminocyclohepta[b]benzofuran hydrochloride]",Ki,[1]; [2],16 nM
same,melting point,,195 to 199 °C
"Cl.O=S(=O)(c1cccc(Cl)c1)c1ccc2c3c(oc2c1)CC1CCC3N1 (centres unmarked) [Example 65, 3-(3-Chlorophenyl)sulfonyl-6,7,8,9,10-pentahydro-7,10-epiminocyclohepta[b]benzofuran hydrochloride]",Ki,[1]; [2],154 nM
same,melting point,,193 to 197 °C
"Cl.O=S(=O)(c1ccccc1)c1cc(CCO)c2oc3c(c2c1)CNCC3 [Example 79, 2-(8-(phenylsulfonyl)-1,2,3,4-tetrahydrobenzofuro[3,2-c]pyridin-6-yl)ethanol hydrochloride]",Ki,[1]; [2],4.3 nM
same,melting point,,239 to 240 °C
"CC(O)Cc1cc(S(=O)(=O)c2ccccc2)cc2c3c(oc12)CCNC3.Cl (centres unmarked) [Example 80, 1-(8-(phenylsulfonyl)-1,2,3,4-tetrahydrobenzofuro[3,2-c]pyridin-6-yl)propan-2-ol hydrochloride]",Ki,[1]; [2],19 nM
same,melting point,,283 to 284 °C
"Cc1ccc(S(=O)(=O)c2ccc3oc4c(c3c2)CNCC4)cc1.Cl [Example 35, 8-(4-Methylphenylsulfonyl)-1,2,3,4-tetrahydrobenzofuro[3,2-c]pyridine hydrochloride]",Ki,[1]; [2],38 nM
same,melting point,,265 to 270 °C
"Cl.O=S(=O)(c1ccccc1)c1cc(Cl)c2oc3c(c2c1)CNCC3 [Example 44, 6-Chloro-8-(phenylsulfonyl)-1,2,3,4-tetrahydrobenzofuro[3,2-c]pyridine hydrochloride]",Ki,[1]; [2],0.55 nM
same,melting point,,290 to 294 °C
